Data on nine compounds can be found in ChEMBL document CHEMBL1122481, “Substituted (2-phenoxyphenyl)acetic acids with antiinflammatory activity. 2” (J Med Chem, 1983).

In data set [1] the test system is Rattus norvegicus. Kind of data set: Antiinflammatory activity in rats, at a dose of 0.08 mg/kg po, using adjuvant-induced arthritis test. It counts as functional.
Data set [2] concerns Rattus norvegicus. Kind of data set: Antiinflammatory activity in rats, at a dose of 100 mg/kg po, activity expressed as minimum ulcerogenic dose(MUD) for a period of 24 hr; Value ranges from (400-800). The data set is classed as functional.
For data set [3], the species on record is Rattus norvegicus. Kind of data set: Potency measured relative to that of fenclofenac. The data set is classed as functional.
Data set [4] concerns Rattus norvegicus. Briefly: Antiinflammatory activity in rats, at a dose of 100 mg/kg po, using adjuvant-induced arthritis test. It counts as functional.
The subject of data set [5] is Rattus norvegicus. Kind of data set: Antiinflammatory activity in rats, at a dose of 10 mg/kg po(showed some toxicity at this dose level), using adjuvant-induced arthritis test. It counts as functional.
The test system of data set [6] is Rattus norvegicus. Briefly: Antiinflammatory activity in rats, at a dose of 2 mg/kg po, using adjuvant-induced as arthritis test. It counts as functional.
A short description of data set [7]: Median lethal dose using 10 rats per dose. It counts as ADME, organism-based. The conditions noted are these: rat, in vivo.
For data set [8], the system named is Rattus norvegicus. Briefly: Antiinflammatory activity in rats, at a dose of 10 mg/kg po, activity expressed as minimum ulcerogenic dose(MUD) for a period of 24 hr; Value ranges from (100-200). It counts as functional.
Data set [9] is filed under the species Rattus norvegicus. Briefly: Potency measured relative to that of fenclofenac. It counts as functional.
Data set [10] concerns Rattus norvegicus. Briefly: Antiinflammatory activity in rats, at a dose of 10 mg/kg po(significant toxicity at 100 mg/kg), by adjuvant-induced arthritis test. The data set is classed as functional.
Data set [11] is filed under the species Rattus norvegicus. Briefly: Antiinflammatory activity in rats, activity expressed as minimum ulcerogenic dose(MUD) for a period of 24 hr. The data set is classed as functional.
For data set [12], the system named is Rattus norvegicus. Kind of data set: Antiinflammatory activity in rats, at a dose of 10 mg/kg po(significant toxicity at 100 mg/kg), activity expressed as minimum ulcerogenic dose(MUD) for a period of 24 hr; Value ranges from (200-400). The data set is classed as functional.

Molecules are shown by their SMILES.

What is called inhibition in vivo is the share of the control response that was lost under treatment. For the compound `O=C(O)Cc1ccccc1[S+]([O-])c1c(Cl)c(Cl)cc(Cl)c1Cl` (stereo unspecified), in the data set on Rattus norvegicus [1], the inhibition in vivo at 0.08 mg/kg came to 19%.
The same measure, in the same setting: for `O=C(O)Cc1ccccc1Nc1c(Cl)c(Cl)cc(Cl)c1Cl` the value was 18%.
`O=C(O)Cc1ccccc1Oc1ccc(Cl)cc1Cl` [FENCLOFENAC] returned an MUD in the data set with Rattus norvegicus [2] of 800 mg/kg. The compound also yielded a Relative potency in the data set listed under Rattus norvegicus [3] of 1. Moreover, the inhibition in vivo at 100 mg/kg in the data set with Rattus norvegicus [4] came to 35%.
Usually LD50 stands for the dose at which mortality reaches 50%. Take `O=C(O)Cc1ccccc1Oc1c(Cl)c(Cl)cc(Cl)c1Cl`: the inhibition in vivo at 10 mg/kg with Rattus norvegicus [5] was 44%. In the data set on Rattus norvegicus [6], the inhibition in vivo at 2 mg/kg is 38%. The LD50 in data set [7] stood at 303 mg/kg. Moreover, the Relative potency in the data set listed under Rattus norvegicus [3] worked out at 40. The compound also came in with an MUD in the data set on Rattus norvegicus [8] of 200 mg/kg.
In the data set listed under Rattus norvegicus [9], `O=C(O)Cc1ccccc1Sc1c(Cl)c(Cl)cc(Cl)c1Cl` yielded a Relative potency of 0.21. Moreover, the inhibition in vivo at 0.08 mg/kg in the data set on Rattus norvegicus [1] is under 22%.
In general, Inhibition refers to the share of the control response that was lost under treatment. `O=C(O)Cc1ccccc1Oc1cc(Cl)cc(Cl)c1Cl` returned a Relative potency in the data set filed under Rattus norvegicus [9] of 1.5. In the data set with Rattus norvegicus [10], the Inhibition is reported as 21%.
With `COc1ccc2c(c1)c(CC(=O)O)c(C)n2C(=O)c1ccc(Cl)cc1` [INDOMETHACIN], the LD50 in [7] worked out at 19.8 mg/kg. In addition, the MUD in the data set filed under Rattus norvegicus [11] turned out to be 1.25 mg/kg.
In the data set filed under Rattus norvegicus [9], `O=C(O)Cc1ccccc1Oc1c(Cl)ccc(Cl)c1Cl` registered a Relative potency of 14. The MUD in the data set with Rattus norvegicus [12] worked out at 400 mg/kg. Also, the Inhibition with Rattus norvegicus [10] was determined as 51%.
`O=C(O)Cc1ccccc1Oc1c(Cl)cc(Cl)c(Cl)c1Cl` returned a Relative potency in the data set listed under Rattus norvegicus [9] of 8. The Inhibition with Rattus norvegicus [10] worked out at 43%.
